{"source": "paper PMC6742966", "about": "“The Synergism of the Small Molecule ENOblock and Fluconazole Against Fluconazole-Resistant Candida albicans” (Frontiers in Microbiology, 2019)", "target": "T1, C. albicans enolase 1 (rCaEno1) (Candida albicans, UniProt P30575)", "T1 construct": "gene ENO1; full-length, C-terminal His6 tag", "T1 sequence (P30575 whole entry)": "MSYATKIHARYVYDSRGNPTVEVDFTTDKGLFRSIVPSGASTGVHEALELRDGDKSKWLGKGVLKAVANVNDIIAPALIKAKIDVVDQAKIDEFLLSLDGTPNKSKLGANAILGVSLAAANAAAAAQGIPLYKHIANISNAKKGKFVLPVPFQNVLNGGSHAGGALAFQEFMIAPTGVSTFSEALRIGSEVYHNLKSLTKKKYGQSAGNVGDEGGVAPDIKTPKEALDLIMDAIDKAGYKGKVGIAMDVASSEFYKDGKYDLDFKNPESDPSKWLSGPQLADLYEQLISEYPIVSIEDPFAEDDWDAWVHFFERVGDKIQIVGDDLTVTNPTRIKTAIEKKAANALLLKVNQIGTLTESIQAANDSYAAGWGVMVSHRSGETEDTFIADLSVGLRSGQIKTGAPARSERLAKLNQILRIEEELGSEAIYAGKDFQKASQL", "experiment": "SPR (Biacore T200, immobilized rCaEno1, steady-state affinity); also inhibits transglutaminase activity of purified rCaEno1, IC50 about […], with no significant effect on enolase activity", "assay_type": "binding"}
{"smiles": "NCCOCCOCCNC(=O)Cc1ccc(Nc2nc(NCc3ccc(F)cc3)nc(NCC3CCCCC3)n2)cc1", "note": "[ENOblock]", "values": [{"measurement": "Kd", "value": "~300", "unit": "nM"}]}
